One assay concerns the target human orexin-2 receptor (Homo sapiens (Human), UniProt O43614). Kind of assay: FLIPR Ca2+ Flux Assay, orexin-2 receptor (hOX2R FLIPR). It is filed as cell-based. To be noted: CHO cells expressing the human orexin-2 receptor; agonist 70 pM Ala-6,12 human orexin-A. The method, boiled down: (§1)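 CHO cells expressing rat orexin-1 or human orexin-2 receptor were loaded with Fluo-4AM (1 μM, 60 min, 37 °C), preincubated with compound for 5 min, then stimulated with 70 pM Ala-6,12 human orexin-A in HBSS/HEPES/probenecid, pH7.4. Peak fluorescence over 5 min was compared with agonist-only wells to give IC50.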
A general note: Calcium flux is commonly read through the fluorescence of an indicator in the cells.

The target in assay [1] is hOXIR (orexin-1 receptor) (Homo sapiens, UniProt O43613). Kind of assay: FLIPR Ca2+ Flux Assay, orexin-1 receptor (hOXIR FLIPR). It is filed as cell-based. To be noted: CHO cells expressing the orexin-1 receptor (method text: rat; table head: hOXIR); agonist 70 pM Ala-6,12 human orexin-A. Put shortly: as §1

For orientation: IC50 means the concentration needed to halve the response being measured. Read a high IC50 as lower potency.

human orexin-2 receptor, sequence (O43614 whole entry): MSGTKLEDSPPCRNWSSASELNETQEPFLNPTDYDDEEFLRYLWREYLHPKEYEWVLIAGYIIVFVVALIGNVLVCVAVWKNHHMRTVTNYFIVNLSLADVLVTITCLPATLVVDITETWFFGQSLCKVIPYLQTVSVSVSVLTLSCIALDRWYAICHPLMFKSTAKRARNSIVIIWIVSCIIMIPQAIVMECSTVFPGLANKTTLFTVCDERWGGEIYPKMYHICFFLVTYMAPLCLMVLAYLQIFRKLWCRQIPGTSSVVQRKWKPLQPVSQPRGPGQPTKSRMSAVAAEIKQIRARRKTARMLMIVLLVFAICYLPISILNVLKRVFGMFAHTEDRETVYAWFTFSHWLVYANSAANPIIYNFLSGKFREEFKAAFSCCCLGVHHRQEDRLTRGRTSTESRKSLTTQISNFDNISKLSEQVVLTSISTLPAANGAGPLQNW

In the case of `C[C@@H]1CC[C@@H](n2ncc(C(C)(C)O)n2)CN1C(=O)c1ncccc1-n1nccn1` [Example 58, 2-{2-[(3R,6R)-6-Methyl-1-{[3-(2H-1,2,3-triazol-2-yl)pyridin-2-yl]carbonyl}piperidin-3-yl]-2H-1,2,3-triazol-4-yl}propan-2-ol], the IC50 at human orexin-2 receptor is 44.9 nM; in assay [1], above 10000 nM.

As for `C[C@@H]1CC[C@@H](n2ncc(C(C)(C)O)n2)CN1C(=O)c1cccnc1-n1nccn1` [Example 59, 2-{2-[(3R,6R)-6-Methyl-1-{[2-(2H-1,2,3-triazol-2-yl)pyridin-3-yl]carbonyl}piperidin-3-yl]-2H-1,2,3-triazol-4-yl}propan-2-ol], the IC50 at human orexin-2 receptor is 400 nM; in assay [1], above 10000 nM.

Take `C[C@@H]1CC[C@@H](n2ncc(C(C)(C)O)n2)CN1C(=O)c1cccnc1C1CC1` [Example 60, 2-(2-{(3R,6R)-1-[(2-Cyclopropylpyridin-3-yl)carbonyl]-6-methylpiperidin-3-yl}-2H-1,2,3-triazol-4-yl)propan-2-ol]: the values for the IC50 (on human orexin-2 receptor; in assay [1]) were 608 nM and above 10000 nM, respectively.

As to `CC(O)c1cnn([C@@H]2CC[C@@H](C)N(C(=O)c3cccnc3OCC(F)F)C2)n1` (stereo partly drawn) [Example 61, 1-{2-[(3R,6R)-1-{[2-(2,2-Difluoroethoxy)pyridin-3-yl]carbonyl}-6-methylpiperidin-3-yl]-2H-1,2,3-triazol-4-yl}ethanol], the IC50 on human orexin-2 receptor was 681 nM; in assay [1], above 10000 nM.

`Cc1nn([C@@H]2CC[C@@H](C)N(C(=O)c3ccccc3-n3nccn3)C2)nc1C(C)(C)O` [Example 62, 2-{5-Methyl-2-[(3R,6R)-6-methyl-1-{[2-(2H-1,2,3-triazol-2-yl)phenyl]carbonyl}piperidin-3-yl]-2H-1,2,3-triazol-4-yl}propan-2-ol]: the IC50 at human orexin-2 receptor is 12.5 nM; in assay [1], 1250 nM.

Turning to `Cc1nn([C@@H]2CC[C@@H](C)N(C(=O)c3cccnc3OC(C)C)C2)nc1C(C)(C)O` [Example 63, 2-{5-Methyl-2-[(3R,6R)-6-methyl-1-{[2-(1-methylethoxy)pyridin-3-yl]carbonyl}piperidin-3-yl]-2H-1,2,3-triazol-4-yl}propan-2-ol], the IC50 at human orexin-2 receptor was 15.9 nM; in assay [1], 3350 nM.

Consider `Cc1nn([C@@H]2CC[C@@H](C)N(C(=O)c3cccnc3OCC(F)F)C2)nc1C(C)(C)O` [Example 64, 2-{2-[(3R,6R)-1-{[2-(2,2-Difluoroethoxy)pyridin-3-yl]carbonyl}-6-methylpiperidin-3-yl]-5-methyl-2H-1,2,3-triazol-4-yl}propan-2-ol], for which the IC50 came out at 8.8 nM at human orexin-2 receptor and 2990 nM in assay [1].

Take `CCOc1ncccc1C(=O)N1C[C@H](n2nc(C)c(C(C)(C)O)n2)CC[C@H]1C` [Example 65, 2-(2-{(3R,6R)-1-[(2-Ethoxypyridin-3-yl)carbonyl]-6-methylpiperidin-3-yl}-5-methyl-2H-1,2,3-triazol-4-yl)propan-2-ol]: the IC50 on human orexin-2 receptor came to 15.1 nM; in assay [1], 2930 nM.

In the case of `Cc1nn([C@@H]2CC[C@@H](C)N(C(=O)c3ccccc3OC(F)F)C2)nc1C(C)(C)O` [Example 66, 2-{2-[(3R,6R)-1-{[2-(Difluoromethoxy)phenyl]carbonyl}-6-methylpiperidin-3-yl]-5-methyl-2H-1,2,3-triazol-4-yl}propan-2-ol], the IC50 is 9.6 nM at human orexin-2 receptor and 3060 nM in assay [1].

`Cc1nn([C@@H]2CC[C@@H](C)N(C(=O)c3ccccc3OC(F)(F)F)C2)nc1C(C)(C)O` [Example 67, 2-{5-Methyl-2-[(3R,6R)-6-methyl-1-{[2-(trifluoromethoxy)phenyl]carbonyl}piperidin-3-yl]-2H-1,2,3-triazol-4-yl}propan-2-ol]: the values for the IC50 (on human orexin-2 receptor; in assay [1]) were 10.1 nM and 1150 nM, respectively.

`Cc1nn([C@@H]2CC[C@@H](C)N(C(=O)c3cccnc3OCC(F)(F)F)C2)nc1C(C)(C)O` [Example 68, 2-{5-mMethyl-2-[(3R,6R)-6-methyl-1-{[2-(2,2,2-trifluoroethoxy)pyridin-3-yl]carbonyl}piperidin-3-yl]-2H-1,2,3-triazol-4-yl}propan-2-ol]: the IC50 at human orexin-2 receptor came to 6.9 nM; in assay [1], 1520 nM.

As for `CCOc1ccccc1C(=O)N1C[C@H](n2nc(C)c(C(C)(C)O)n2)CC[C@H]1C` [Example 69, 2-(2-{(3R,6R)-1-[(2-Ethoxyphenyl)carbonyl]-6-methylpiperidin-3-yl}-5-methyl-2H-1,2,3-triazol-4-yl)propan-2-ol], the IC50 came to 7.9 nM on human orexin-2 receptor and 1950 nM in assay [1].

Consider `Cc1nn([C@@H]2CC[C@@H](C)N(C(=O)c3ccccc3C3CC3)C2)nc1C(C)(C)O` [Example 70, 2-(2-{(3R,6R)-1-[(2-Cyclopropylphenyl)carbonyl]-6-methylpiperidin-3-yl}-5-methyl-2H-1,2,3-triazol-4-yl)propan-2-ol], for which the IC50 on human orexin-2 receptor stood at 8.8 nM; in assay [1], 760 nM.

Turning to `Cc1nn([C@@H]2CC[C@@H](C)N(C(=O)c3ccccc3-n3cccn3)C2)nc1C(C)(C)O` [Example 71, 2-{5-Methyl-2-[(3R,6R)-6-methyl-1-{[2-(1H-pyrazol-1-yl)phenyl]carbonyl}piperidin-3-yl]-2H-1,2,3-triazol-4-yl}propan-2-ol], the IC50 on human orexin-2 receptor was 9.3 nM; in assay [1], 2710 nM.

Regarding `Cc1nn([C@@H]2CC[C@@H](C)N(C(=O)c3ccc(F)cc3-n3nccn3)C2)nc1C(C)(C)O` [Example 72, 2-{2-[(3R,6R)-1-{[4-Fluoro-2-(2H-1,2,3-triazol-2-yl)phenyl]carbonyl}-6-methylpiperidin-3-yl]-5-methyl-2H-1,2,3-triazol-4-yl}propan-2-ol], the values for the concentration for half-maximal inhibition (IC50) (at human orexin-2 receptor; in assay [1]) were 15.2 nM and 1290 nM, respectively.

Turning to `Cc1nn([C@@H]2CC[C@@H](C)N(C(=O)c3cccnc3-c3ccccc3)C2)nc1C(C)(C)O` [Example 73, 2-(5-Methyl-2-{(3R,6R)-6-methyl-1-[(2-phenylpyridin-3-yl)carbonyl]piperidin-3-yl}-2H-1,2,3-triazol-4-yl)propan-2-ol], the IC50 is 17.4 nM at human orexin-2 receptor and 2460 nM in assay [1].

Turning to `C[C@@H]1CC[C@@H](n2nnc(C(C)(C)O)n2)CN1C(=O)c1ccccc1-n1nccn1` [Example 74, 2-{2-[(3R,6R)-6-Methyl-1-{[2-(2H-1,2,3-triazol-2-yl)phenyl]carbonyl}piperidin-3-yl]-2H-tetrazol-5-yl}propan-2-ol], the IC50 on human orexin-2 receptor is 44.9 nM; in assay [1], above 10000 nM.

`C[C@@H]1CC[C@@H](n2cc(C(C)(C)O)cn2)CN1C(=O)c1ccccc1-n1nccn1` [Example 75, 2-{1-[(3R,6R)-6-Methyl-1-{[2-(2H-1,2,3-triazol-2-yl)phenyl]carbonyl}piperidin-3-yl]-1H-pyrazol-4-yl}propan-2-ol]: the IC50 on human orexin-2 receptor is 21.6 nM; in assay [1], above 10000 nM.

Turning to `CCCc1ccccc1C(=O)N1C[C@H](n2cc(C(C)(C)O)cn2)CC[C@H]1C` [Example 76, 2-(1-{(3R,6R)-6-Methyl-1-[(2-propylphenyl)carbonyl]piperidin-3-yl}-1H-pyrazol-4-yl)propan-2-ol], the values for the IC50 (at human orexin-2 receptor; in assay [1]) were 52.3 nM and above 10000 nM, respectively.

For the compound `CCOc1ccccc1C(=O)N1C[C@H](n2cc(C(C)(C)O)cn2)CC[C@H]1C` [Example 77, 2-(1-{(3R,6R)-1-[(2-Ethoxyphenyl)carbonyl]-6-methylpiperidin-3-yl}-1H-pyrazol-4-yl)propan-2-ol], the IC50 was 121 nM on human orexin-2 receptor and above 10000 nM in assay [1].

Take `C[C@@H]1CC[C@@H](n2cc(C(C)(C)O)cn2)CN1C(=O)c1ccccc1C1CC1` [Example 78, 2-(1-{(3R,6R)-1-[(2-Cyclopropylphenyl)carbonyl]-6-methylpiperidin-3-yl}-1H-pyrazol-4-yl)propan-2-ol]: the IC50 on human orexin-2 receptor is 25.5 nM; in assay [1] it was above 10000 nM.

For the compound `C[C@@H]1CC[C@@H](n2cc(C(C)(C)O)cn2)CN1C(=O)c1ccccc1OCC(F)F` [Example 79, 2-{1-[(3R,6R)-1-{[2-(2,2-Difluoroethoxy)phenyl]carbonyl}-6-methylpiperidin-3-yl]-1H-pyrazol-4-yl}propan-2-ol], the IC50 is 127 nM at human orexin-2 receptor and above 10000 nM in assay [1].

As to `C[C@@H]1CC[C@@H](n2cc(C(C)(C)O)cn2)CN1C(=O)c1ccccc1OCC(F)(F)F` [Example 80, 2-{1-[(3R,6R)-6-Methy-1-{[2-(2,2,2-trifluoroethoxy)phenyl]carbonyl}piperidin-3-yl]-1H-pyrazol-4-yl}propan-2-ol], the IC50 at human orexin-2 receptor is 165 nM; in assay [1] it was above 10000 nM.

In the case of `CC(C)Oc1ccccc1C(=O)N1C[C@H](n2cc(C(C)(C)O)cn2)CC[C@H]1C` [Example 81, 2-{1-[(3R,6R)-6-Methyl-1-{[2-(1-methylethoxy)phenyl]carbonyl}piperidin-3-yl]-1H-pyrazol-4-yl}propan-2-ol], the IC50 at human orexin-2 receptor is 89.8 nM; in assay [1] it was above 10000 nM.

Regarding `CC(C)c1ccccc1C(=O)N1C[C@H](n2cc(C(C)(C)O)cn2)CC[C@H]1C` [Example 82, 2-{1-[(3R,6R)-6-Methyl-1-{[2-(1-methylethyl)phenyl]carbonyl}piperidin-3-yl]-1H-pyrazol-4-yl}propan-2-ol], the IC50 on human orexin-2 receptor was 347 nM; in assay [1] it was above 10000 nM.

`C[C@@H]1CC[C@@H](n2cc(C(C)(C)O)cn2)CN1C(=O)c1ccccc1OC(F)(F)F` [Example 83, 2-{1-[(3R,6R)-6-Methyl-1-{[2-(trifluoromethoxy)phenyl]carbonyl}piperidin-3-yl]-1H-pyrazol-4-yl}propan-2-ol]: the IC50 at human orexin-2 receptor is 31.4 nM; in assay [1], above 10000 nM.

As for `C[C@@H]1CC[C@@H](n2cc(C(C)(C)O)cn2)CN1C(=O)c1ccccc1OC(F)F` [Example 84, 2-{1-[(3R,6R)-1-{[2-(Difluoromethoxy)phenyl]carbonyl}-6-methylpiperidin-3-yl]-1H-pyrazol-4-yl}propan-2-ol], the 50% inhibitory concentration (IC50) on human orexin-2 receptor is 464 nM; in assay [1], above 10000 nM.
